From paper doi:10.1101/2022.05.04.490172v1 (biorxiv, 2022) come the findings set out here.

Molecules are shown by their SMILES.

The experiment concerns BRN2 (POU3F2), luciferase reporter assay. Kind of experiment: cells. Particulars: for inhibition at 10 µM: read-out: % of Inhibition (Luciferase assay) / 10µM; for inhibition at 30 µM: read-out: % of Inhibition (Luciferase assay) / 30µM; for % of Inhibition (Luciferase assay) / 10µM / % of Inhibition (Luciferase assay) / 30µM: inhibitor.

For the compound `c1cc(-c2noc(C3CCCCC3)n2)ccn1` [B-28], the inhibition at 10 µM is -139% and the inhibition at 30 µM is -180%.

As to `C/C(=N/Nc1nc2ccccc2[nH]1)c1ccc(F)cc1` [B-48], the inhibition at 10 µM was -46.2% and the inhibition at 30 µM is -6.79%.

As to `Cc1ccc(-c2noc(-c3ccncc3)n2)cc1` [B-26], the inhibition at 10 µM was -147% and the inhibition at 30 µM is -38.9%.

On to `Oc1ccc(/C=N/Nc2nc3ccccc3[nH]2)c(O)c1` [B-49], for which the inhibition at 10 µM came to 46.1% and the inhibition at 30 µM came out at 70.8%.

Turning to `Cn1c(-c2ccco2)nc2cc(N)ccc21` [B-64], the inhibition at 10 µM turned out to be 19% and the inhibition at 30 µM amounted to 39%.

With `C/C(=N\Nc1nc2ccccc2[nH]1)c1ccccc1` [B-58], the inhibition at 30 µM is -58%.

For `Cc1ccc(-c2nc3ccccc3n2C)o1` [B-55], the inhibition at 10 µM is -120% and the inhibition at 30 µM is -88.1%.

Turning to `c1ccc2c(c1)CC/C2=N/Nc1ccc2ccccc2n1` [B-39], the inhibition at 10 µM came to 99.1% and the inhibition at 30 µM stood at 99.9%.

In the case of `C/C(=N/Nc1nc2ccccc2[nH]1)c1ccccc1Cl` [B-41], the inhibition at 10 µM amounted to 18.8% and the inhibition at 30 µM stood at 74.1%.

Consider `Clc1ccc(Cl)c(-c2ccc(-c3nc4ccccc4[nH]3)o2)c1` [B-71], for which the inhibition at 10 µM is 46.2%.

For `O=C(Nc1cc(Cl)cc(Cl)c1)c1ccccc1` [B-13], the “% of Inhibition (Luciferase assay) / 10µM” value is given as -8.507% and the “% of Inhibition (Luciferase assay) / 30µM” value was determined as 43.29%.

On to `Cn1c(-c2ccco2)nc2ccccc21` [B-57], for which the inhibition at 10 µM was -138% and the inhibition at 30 µM was -172%.

As for `Oc1c(Cl)cc(Cl)cc1/C=N/Nc1nc2ccccc2[nH]1` [B-31], the inhibition at 10 µM worked out at 22.6% and the inhibition at 30 µM came to 12.7%.

As to `COc1ccccc1/C=N\Nc1nc2ccccc2[nH]1` [B-61], the inhibition at 10 µM was -172% and the inhibition at 30 µM was -70.4%.

With `O=C(Nc1cc(Cl)cc(Cl)c1)c1ccccc1` [B-10], the “% of Inhibition (Luciferase assay) / 10µM” value was -70.87% and the “% of Inhibition (Luciferase assay) / 30µM” value was 68.05%.

As to `Brc1ccc(-c2ccc(-c3nc4ccccc4[nH]3)o2)c(Br)c1` [B-69], the inhibition at 10 µM amounted to 90% and the inhibition at 30 µM turned out to be 94%.

As to `Cc1ccccc1/C=N\Nc1nc2ccccc2[nH]1` [B-60], the inhibition at 10 µM is -23.8% and the inhibition at 30 µM was 25.5%.

Consider `C[C@@H]1Cc2ccccc2N1C(=O)c1cccc2ccccc12` [B-20], for which the inhibition at 10 µM amounted to 15.7% and the inhibition at 30 µM came to 35.5%.

`c1ccc([C@H]2COC(c3cccs3)=N2)cc1` [B-23]: the inhibition at 10 µM is -121% and the inhibition at 30 µM is -147%.

Take `Cc1ccc(-c2nc3cc(N)ccc3n2C)o1` [B-63]: the inhibition at 10 µM came out at 22% and the inhibition at 30 µM came to 44%.

As to `Cc1cc(C(=O)Nc2cc(F)ccc2C)c2ccccc2n1` [B-5], the inhibition at 10 µM was 4.75% and the inhibition at 30 µM was found to be 9.07%.

Turning to `COc1ccc(O)c(/C=N/Nc2nc3ccccc3[nH]2)c1` [B-29], the inhibition at 10 µM is -44.2% and the inhibition at 30 µM amounted to 22.8%.

Consider `COc1ccc(CNc2ccc(C)cc2)c2ccccc12` [B-2], for which the inhibition at 10 µM was found to be 19.6% and the inhibition at 30 µM is 24.4%.

For `Oc1ccc2ccccc2c1/C=N/Nc1nc2ccccc2[nH]1` [B-51], the inhibition at 10 µM is -12.8% and the inhibition at 30 µM amounted to 76.8%.

For `Oc1cccc(/C=N/Nc2nc3ccccc3[nH]2)c1` [B-54], the inhibition at 10 µM is -45.1% and the inhibition at 30 µM was -34.4%.

Consider `Clc1cccc(-c2ccc(-c3nc4cc(Cl)ccc4[nH]3)o2)c1` [B-72], for which the inhibition at 10 µM was -50.2% and the inhibition at 30 µM came out at 87.1%.

Take `COc1ccc(/C=N\Nc2nc3ccccc3[nH]2)cc1O` [B-65]: the inhibition at 10 µM came to 31% and the inhibition at 30 µM was determined as 51%.
